Laboratory results published in the pKa sets of Baltruschat and Czodrowski (2020).

conditions: acidic group

Structure (SMILES) | pKa
CC1(C)NC(=S)NC1=O | 8.71
O=[N+]([O-])c1ccc2c(O)cccc2c1 | 8.49
Cc1cnc2c(O)cccc2c1 | 9.75
O=C(c1ccccc1)c1cc[nH]n1 | 12
CC(=O)CC(=O)C(C)C | 9.46
Oc1c(Cl)cc(Cl)c(Cl)c1C[NH+]1CCOCC1 | 4.84
C=C(SC1CCCCC1)C(=O)O | 3.4
Cc1nccc2c1[nH]c1cc(O)ccc12 | 9.47
CCP(=O)(CC)CC=O | 10.9
O=S(=O)([N-]c1ncc(Cl)cn1)c1ccc(O)cc1 | 8.84
CC(C)[NH2+]CC(=O)O | 2.35
CC(C)(C)O | 17
O=[N+]([O-])c1cccc(O)c1O | 6.64
O=C(O)C1C2CCC1CC2 (configuration not stated) | 4.85
C[Si](C)(CCl)CCCC(=O)O | 4.97
NC1=NS(=O)(=O)Nc2nc[nH]c21 | 4.28
CCCC(C)C1(CC)C(=O)N=C([O-])NC1=O (configuration not stated) | 12.4
CC1NCCc2c1[nH]c1ccc([N+](=O)[O-])cc21 (configuration not stated) | 14.1
O=C(O)c1[nH]c[nH+]c1C(=O)[O-] | 4.27
O=S(=O)([N-]c1ncccn1)c1ccc(O)cc1 | 9
Oc1ccccc1Br | 8.4
N#CC(C#N)Cc1ccc(Cl)cc1 | 11.5
O=C(O)c1ccc(-c2nnn[nH]2)cc1 | 3.63
CCOC(=O)C(CC)C(C)=O (configuration not stated) | 12.7
CCC1(C2=CCCCC2)C(=O)[N-]C(=S)NC1=O | 11.8
CC(C)NC(=S)S | 3.1

Structure (SMILES) | pKa
N#Cc1cccc(-c2nnn[nH]2)c1 | 3.45
CC[NH+](CC)Cc1cc(Cl)cc(Cl)c1O | 5.95
O=C1OCC(O)=C1O | 4.4
CCOC(=O)[C@H]1CC(=O)N[C@@H]1C(=O)O | 3.5
CCCc1cc(Cl)cc(Cl)c1O | 8.1
COc1cc(OC)nc(NS(=O)(=O)c2ccc(N)cc2)n1 | 7.12
Cc1ccnc2c(O)cccc12 | 8.44
Nc1nc(O)[n+]([C@@H]2C[C@@H](O)[C@H](CO)O2)cc1CO | 3.55
Cc1ccc(C(O)C(C(=O)O)c2ccc(-c3ccccc3)cc2)cc1 (configuration not stated) | 4.24
N#CCC(=O)O | 2.46
C[S+](C)c1cccc(O)c1 | 7.67
CC(=O)c1ccc(S)cc1 | 5.33
CCCCN[N+](=O)[O-] | 6.48
Cc1cccc(C)c1NC(=S)c1ccccc1 | 10.8
NNC(=O)c1ccccc1 | 12.4
Cc1c(Cl)cc2nnn(O)c2c1[N+](=O)[O-] | 3.21
CC(=O)/N=c1\sc(S(N)(=O)=O)nn1C | 7.3
Cc1ccc([Se]CC(=O)O)cc1 | 3.86
O=C(O)c1c[nH]c2ccccc12 | 5.27
CN(C)C(=O)CC(=O)c1ccncc1 | 7.75
O=C([O-])/C=N/O | 10.2
CCC(=O)NO | 9.46
C[n+]1ccccc1/C=C/c1ccc(O)cc1 | 8.4
Cc1ncnc2c(O)cccc12 | 8.75
O=[N+]([O-])c1cc(O)ccc1[O-] | 10.1
O=C(O)C[NH+](CCNS(=O)(=O)c1ccc(CCBr)cc1)CC(=O)O | 2.15

same assay, conditions: basic group

Structure (SMILES) | pKa
CCCCNCC(=O)c1ccc(O)cc1 | 8.55
Cn1cnc2ncn(C)c2c1=O | 2.16
C[Si](C)(C)CNC[Si](C)(C)C | 11
C[C@H](N)[C@H](O)c1ccc(O)cc1 | 8.69
Cc1cnc2c(O)cccc2c1 | 4.93
CC(Cc1ccccc1)NCCC#N (configuration not stated) | 7.23
NCC(=O)[O-] | 9.65
CN(C)CCCCCCCCCCNC(=O)/C=N/[O-] | 10.6
[O-]c1nccc2cccnc12 | 12
O=Cc1ccc2ccccc2n1 | 3.1
C=CCC(C)(CN(CC)CC)OC(=O)c1ccccc1 (configuration not stated) | 7.8
CCC1CCCN1C (configuration not stated) | 9.78
CN(C)CCCCNC(=O)/C=N/[O-] | 10.1
CCNC(=O)C1CCCCN1 (configuration not stated) | 8.6
Cc1cc(-c2[nH]cc[nH+]2)n[nH]1 | 1.5
Cc1nccc2c1[nH]c1cc(O)ccc12 | 7.39
Cc1cnc(N(C)C)s1 | 6.08
CN(C)CCC(=O)C(C)(C)C | 9.49
Nc1cccc2cccc(N)c12 | 4.6
[O-]c1cnc2ccccc2n1 | 9.1
CC[n+]1ccc([O-])nc1[S-] | 8.7
C#CCNCC#C | 6.08
c1cc([C@@H]2CCCN2)nc([C@@H]2CCC[NH2+]2)c1 | 9.39
C=C(C)C(=O)NCCN(CC)CC | 9.37
Cn1ccnc1N=[N+]=[N-] | 4.05

Structure (SMILES) | pKa
NC1=NS(=O)(=O)Nc2nc[nH]c21 | 0.28
CCN(CC)CCCC(C)Nc1ccnc2ccccc12 (configuration not stated) | 10.2
C1CCN(CCN2CCCC2)C1 | 9.47
CNCC[NH2+]C | 7.29
CN(C)/C=N/c1ccccc1[N+](=O)[O-] | 5.65
CN(C)CC(CSCc1ccccc1)SCc1ccccc1 (configuration not stated) | 7.3
CCCN1CC(O[Si](C)(C)C)C1 | 8.89
N[C@@H](CCC(=O)[O-])C(=O)[O-] | 9.33
Nc1cccc([N+](=O)[O-])c1 | 2.6
c1ccc(-c2cc(-c3ccccc3)c(NCCN3CCOCC3)nn2)cc1 | 6.81
CCN(CC)Cc1cc(Cl)cc(Cl)c1[O-] | 11.6
C(=C/c1ccncc1)/c1ccncc1 | 5.57
Cc1ccc(N)cc1 | 5.04
Cn1ccc(=S)c2ccccc21 | 0.56
O=C1CCC[C@H]2[C@H]3C[C@@H](CN12)[C@H]1CCCCN1C3 | 9.2
CC(=O)N1CCNCC1 | 7.94
CCN(CCO)c1ccc(N)cc1 | 7.12
[NH3+][C@@H](Cc1nc[nH]c1I)C(=O)[O-] | 4.18
NC(=O)NOCCC(N)C(=O)[O-] (configuration not stated) | 8.9
CC(C)C(=O)C(C)(C)CN(C)C | 9.3
c1csc(-c2nccs2)n1 | 2.76
Nc1cccc(Cl)c1 | 3.59
OCc1cc(-c2ccccc2)nnc1NCCN1CCOCC1 | 6.99
C=C[C@]1(O)C[C@H](C)N[C@@H]2CCCC[C@H]21 | 9.83
Cc1cc(-c2ccccc2)nnc1NCC[NH+]1CCOCC1 | 4

Structure (SMILES) | pKa
[O-]c1cccnc1 | 8.6
C=CCN(CC=C)CCCNC(=O)/C=N/[O-] | 9.34
Cc1nc(N)nc(N)n1 | 4.59
C(COCCc1nnn[nH]1)OCCc1nnn[nH]1 | 4.79
CC[NH+](CC)CCCCCCNc1c2ccc(Cl)cc2nc2ccc(OC)cc12 | 8.12
CC(C)(C)CC(C)(C)N | 10.8
CCCCN(CCCC)c1ccc([N+](=O)[O-])cc1 | 1.08
CC1=NCCS1 | 5.29
NNC(=O)c1ccccc1 | 3.02
Nc1nccnn1 | 4
Nc1cc2c(cc1Br)CCCC2 | 3.05
CCNCC(=O)N(CC)CC | 8.78
[NH3+]c1ccc(-c2nc3ccccc3s2)cc1 | 0.1
C[C@H](N)C(=O)[O-] | 9.72
CCCCCCCCCCNc1ccccc1 | 4.56
N[C@@H]1C[C@@H]1N | 9.04
CN(CC[NH+](C)C)CC[NH+](C)C | 2.57
Cc1cc(Cn2[nH+]c(C)cc2C)n[nH]1 | 1.2
O=[N+]([O-])c1ccc(-c2ncc(-c3ccccc3)o2)cc1 | -0.61
CCCN(CCO)CC(O)CC (configuration not stated) | 9
Cc1ncnc2c(O)cccc12 | 2.9
CN(C)CCCCCNC(=O)/C=N/[O-] | 10.3
c1ccc(-c2cccc(-c3cccc[nH+]3)n2)nc1 | 3.28
CC(Cl)CN (configuration not stated) | 8.54
C=CCC(C)(CN(CC)CC)OC(C)=O (configuration not stated) | 9.85
